The values that follow come from US5766875A, “Metabolic monitoring of cells in a microplate reader” (priority 1995, dated 1998).

The conditions of data set [1]: Redox Indicators; cited from earlier work.
Data set [2] deals with M1WT3 cells. Description: Carbachol stimulation of M1WT3 cells, extracellular acidification rate in a THERMOmax microplate reader (Example 8). Type of data set: cell-based. The settings on record: for ΔpH/Sec: mean of triplicate. How it is done:
The M1WT3 cells used for the following experiments were obtained from the American Type Culture Collection (No. CRL 1985). These cells were a line of CHO-K1 cells transfected with the gene for muscarinic receptors in order to provide cells responsive to cholinergic agonists, such as Carbachol. The M1WT3 cells were grown in Ham's F12 medium with 50 μg/ml […] (Geneticin), 10% fetal bovine serum, […], 1.0 mg/L streptomycin and 1000 units/L penicillin (growing medium) under 5% CO2 at 37° C.
To initiate growth, 5×10^4 M1WT3 cell/well (200 μL/well) were sterilely plated in selected individual wells of a flat bottom 96-well microplate. The selected wells were comprised of the inner 60 wells. At least 3 of the inner wells, however, were left without cells to be used as control wells. The entire microplate then was covered with a loosely-fitting plastic cover that allowed gas exchange to the wells and the microplate was incubated at 37° C. for approximately 24 hours to allow cells to attach to bottom of each selected well with cells.
Twelve hours prior to measuring extracellular acidification the growing media was aspirated off with a vacuum system and replaced with 200 μL of starving media (growing media with 1 mg/ml bovine serum albumin in place of the 10% fetal bovine serum) and the cells were again placed under 5% CO2 at 37° C. The microplate was then incubated for 12 hours. Within 30-60 minutes prior to monitoring the rates of extracellular acidification, the starving medium was aspirated off, the wells were rinsed with approximately 200 μL simple indicator medium (Table 2 components) and then filled with 200 μL of simple indicator medium. All media was warmed to 37° C. before addition to the cells.
The light absorbance of the individual wells of the 96-well microplate was read in a THERMOmax™ microplate absorbance reader modified to record the ratio of optical density at two wavelengths (560 nm/420 nm), kinetically at 37° C. for 15 minutes with automix on. The automix feature is described in the Operator's Manual for the THERMOmax™ instrument (Catalog No. 0112-0014) of Molecular Devices Corporation, Menlo Park, Calif. The automix feature provides for uniform mixing of the contents of each well of the multiassay plate for about 5 seconds, followed by measurement of optical density at the first wavelength (in this case 560 nm) in about 5 seconds, followed by a change in interference filter in about 1 second, followed by measurement of optical density at the second wavelength (in this case 420 nm) in about 5 seconds. Thus, all optical density measurements are completed within 11 seconds following termination of the agitation step and the time elapsed for any one well between measuring the optical density at the first and second wavelengths was 6 seconds. This was the minimum time between reading optical density at the first and second wavelengths possible with the THERMOmax™ instrument. Preferably the readings at the first and second wavelengths are made simultaneously.
Additionally, the contents of the microplate wells were not agitated between reading optical density at the first and second wavelengths so that the light scattering effects of the cells tended to be the same for the optical density measurements made at the first and second wavelengths for any one well. […] The reading cycle, with agitation, measuring absorbance at the first wavelength of light, changing the filter, and reading the absorbance at the second wavelength of light, was repeated at the rate of 3 cycles per minute (i.e. every 20 seconds).
At the end of the 15 minutes the reading cycles were stopped, the microplate was removed and the media was quickly aspirated off and replaced with simple indicator media containing a cell-affecting agent, in this case 0 to 300 μM Carbachol. The reading cycles then were repeated, as above, for two consecutive 15 minute data collection periods followed by one final 30 minute data collection period. […]

A short description of data set [3]: Apparent pH change with temperature of buffering systems as indicated by phenol red. Type of data set: physicochemical. The note with it: phenol red pH indicator; 50 mM total buffer; with 1.0M NaCl added.

Structures can show the parent of a compound that is named as a salt. Where two headings read alike, the source gives them in different places.

Regarding `O=C1C(Cl)=CC(=Nc2ccc(O)cc2)C=C1Cl` [2,6-Dichloroindophenol Sodium Salt], in data set [1], the “Potential at pHOa” value is 0.67 Volts.
As for `COc1cc(-c2ccc(N)c(OC)c2)ccc1N.Cl.Cl` [3,3'-Dimethoxybenzidine Dihydrochloride], the “Potential at pHOa” value in data set [1] is recorded as 0.76 Volts.
Consider `COc1cc(-c2ccc(N)c(OC)c2)ccc1N` [3,3'-Dimethoxybenzidine], for which the “Potential at pHOa” value in data set [1] is reported as 0.76 Volts.
For the compound `O=S(=O)([O-])c1ccc(Nc2ccccc2)cc1.O=S(=O)([O-])c1ccc(Nc2ccccc2)cc1.[Ba+2]` [Barium Diphenylaminesulfonate], the “Potential at pHOa” value in data set [1] was 0.85 Volts.
Consider `C[N+](C)(C)CCOC(N)=O` [Carbachol], for which the “ΔProtons/Cell·Sec minus 0 Carbachol” value in data set [2] (3 μM, First 15 min) is 1.00E + 07 ΔProtons/Cell·Sec; in data set [2] (3 μM, Last 30 min), 1.44E - 07 ΔProtons/Cell·Sec; in data set [2] (3 μM, Second 15 min), 1.12E - 07 ΔProtons/Cell·Sec; in data set [2] (10 μM, First 15 min), 1.44E + 07 ΔProtons/Cell·Sec; in data set [2] (10 μM, Last 30 min) it was 2.10E - 07 ΔProtons/Cell·Sec; in data set [2] (30 μM, First 15 min), 1.12E + 07 ΔProtons/Cell·Sec. Further, the “ΔProtons/Cell·Sec minus 0 Carbachol” value in data set [2] (30 μM, Second 15 min) worked out at 1.47E - 07 ΔProtons/Cell·Sec; in data set [2] (300 μM, First 15 min) it was 6.76E + 06 ΔProtons/Cell·Sec; in data set [2] (300 μM, Second 15 min), 1.11E - 07 ΔProtons/Cell·Sec. Further, the ΔpH/Sec in data set [2] (3 μM, First 15 min) is 7.1534E - 05 ΔpH/Sec; in data set [2] (3 μM, Last 30 min) it was 5.0490E - 05 ΔpH/Sec; in data set [2] (3 μM, Second 15 min) it was 5.2542E - 05 ΔpH/Sec; in data set [2] (10 μM, First 15 min), 7.5928E - 05 ΔpH/Sec; in data set [2] (10 μM, Last 30 min), 5.7103E - 05 ΔpH/Sec; in data set [2] (10 μM, Second 15 min), 5.6378E - 05 ΔpH/Sec. The ΔpH/Sec in data set [2] (30 μM, First 15 min) is listed as 7.2713E - 05 ΔpH/Sec; in data set [2] (30 μM, Last 30 min), 5.7641E - 05 ΔpH/Sec; in data set [2] (30 μM, Second 15 min) it was 5.6101E - 05 ΔpH/Sec; in data set [2] (300 μM, First 15 min), 8.8294E - 05 ΔpH/Sec; in data set [2] (300 μM, Last 30 min), 5.2560E - 05 ΔpH/Sec; in data set [2] (300 μM, Second 15 min) it was 5.2420E - 05 ΔpH/Sec. In addition, the activation at 3 µM is 5.94% in data set [2] (0.25 h, 3 μM, First 15 min, read-out: % Change compared to pre-Carbachol); 12.6% in data set [2] (0.25 h, 3 μM, First 15 min, read-out: % Change compared to pre-Carbachol minus 0 Carbachol); -25.2% in data set [2] (0.5 h, 3 μM, Last 30 min, read-out: % Change compared to pre-Carbachol); 20% in data set [2] (0.5 h, 3 μM, Last 30 min, read-out: % Change compared to pre-Carbachol minus 0 Carbachol); -22.2% in data set [2] (0.5 h, 3 μM, Second 15 min, read-out: % Change compared to pre-Carbachol); 15% in data set [2] (0.5 h, 3 μM, Second 15 min, read-out: % Change compared to pre-Carbachol minus 0 Carbachol). Further, the activation at 10 µM was 20% in data set [2] (0.25 h, 10 μM, First 15 min, read-out: % Change compared to pre-Carbachol); 26.6% in data set [2] (0.25 h, 10 μM, First 15 min, read-out: % Change compared to pre-Carbachol minus 0 Carbachol); -9.77% in data set [2] (0.5 h, 10 μM, Last 30 min, read-out: % Change compared to pre-Carbachol); 35.5% in data set [2] (0.5 h, 10 μM, Last 30 min, read-out: % Change compared to pre-Carbachol minus 0 Carbachol); -10.9% in data set [2] (0.5 h, 10 μM, Second 15 min, read-out: % Change compared to pre-Carbachol); 26.3% in data set [2] (0.5 h, 10 μM, Second 15 min, read-out: % Change compared to pre-Carbachol minus 0 Carbachol). For the same compound, the activation at 30 µM in data set [2] (0.25 h, 30 μM, First 15 min, read-out: % Change compared to pre-Carbachol) is 18.6%; in data set [2] (0.25 h, 30 μM, First 15 min, read-out: % Change compared to pre-Carbachol minus 0 Carbachol), 25.3%; in data set [2] (0.5 h, 30 μM, Last 30 min, read-out: % Change compared to pre-Carbachol), -5.63%; in data set [2] (0.5 h, 30 μM, Last 30 min, read-out: % Change compared to pre-Carbachol minus 0 Carbachol), 39.6%; in data set [2] (0.5 h, 30 μM, Second 15 min, read-out: % Change compared to pre-Carbachol), -8.46%; in data set [2] (0.5 h, 30 μM, Second 15 min, read-out: % Change compared to pre-Carbachol minus 0 Carbachol), 28.8%. Further, the activation at 300 µM in data set [2] (0.25 h, 300 μM, First 15 min, read-out: % Change compared to pre-Carbachol) was 19.4%; in data set [2] (0.25 h, 300 μM, First 15 min, read-out: % Change compared to pre-Carbachol minus 0 Carbachol) it was 26.1%; in data set [2] (0.5 h, 300 μM, Last 30 min, read-out: % Change compared to pre-Carbachol), -8.08%; in data set [2] (0.5 h, 300 μM, Last 30 min, read-out: % Change compared to pre-Carbachol minus 0 Carbachol) it was 37.2%; in data set [2] (0.5 h, 300 μM, Second 15 min, read-out: % Change compared to pre-Carbachol), -8.33%; in data set [2] (0.5 h, 300 μM, Second 15 min, read-out: % Change compared to pre-Carbachol minus 0 Carbachol), 28.9%.
Regarding `O=C(O)CC(O)(CC(=O)O)C(=O)O` [Citrate buffer], the “apparent change in pH with change in temperature” value in data set [3] was determined as 8.06 millipH/°C.
Regarding `O.O.[C-]#N.[C-]#N.[Fe+2].c1cnc2c(c1)ccc1cccnc12.c1cnc2c(c1)ccc1cccnc12` [Dicyanobis(1,10-phenanthroline)Iron], the “Potential at pHOa” value in data set [1] is listed as 1.41 Volts.
Regarding `c1ccc(Nc2ccccc2)cc1` [Diphenylamine], in data set [1], the “Potential at pHOa” value is 0.76 Volts.
Turning to `CN(C)c1ccc2nc3ccc(=[N+](C)C)cc-3sc2c1` [Methylene Blue], the “Potential at pHOa” value in data set [1] was 0.53 Volts.
Turning to `CN(C)c1ccc(N)cc1` [N,N-Dimethyl-p-phenylanediamine], in data set [1], the “Potential at pHOa” value is given as 0.76 Volts.
Consider `CN(C)c1ccc(N=C2C=CC(=O)C=C2)cc1` [N,N-Dimethylindoaniline], for which the “Potential at pHOa” value in data set [1] was 0.22 Volts.
As to `COc1ccc(Nc2ccc(N)cc2)cc1` [N-(p-Methoxyphenyl)-p-phenylanediamine Hydrochloride], in data set [1], the “Potential at pHOa” value is on record as 0.71 Volts.
Take `O=C(O)c1ccccc1Nc1ccccc1` [N-Phenylanthranilic Acid]: the “Potential at pHOa” value in data set [1] is given as 1.08 Volts.
For the compound `Cc1cc2nc3ccc(N(C)C)cc3nc2cc1N` [Neutral Red], the “Potential at pHOa” value in data set [1] is -0.24 Volts.
For the compound `CC[N+](CC)=c1ccc2nc3c(cc(N)c4ccccc43)oc-2c1` [Nile Blue A], the “Potential at pHOa” value in data set [1] is 0.29 Volts.
`Nc1ccc2nc3ccc(N)cc3[s+]c2c1` [Thionin]: in data set [1], the “Potential at pHOa” value is recorded as 0.56 Volts.
`O=S(=O)([O-])[O-].[Fe+2].c1cnc2c(c1)ccc1cccnc12.c1cnc2c(c1)ccc1cccnc12.c1cnc2c(c1)ccc1cccnc12` [Tris(1,10-phenanthroline)Iron(R) Sulfate]: the “Potential at pHOa” value in data set [1] is reported as 1.14 Volts.
`CCN=C1C=CC(=C(c2ccc(NCC)c(C)c2)c2ccc(S(=O)(=O)O)cc2S(=O)(=O)O)C=C1C` [Xylene Cyanol FF]: in data set [1], the “Potential at pHOa” value was 1.00 Volts.
Regarding `Cc1cc(-c2ccc(N)c(C)c2)ccc1N` [o-Tolidine], the “Potential at pHOa” value in data set [1] is 0.87 Volts.
For `CCOc1ccc(N=Nc2ccc(N)cc2N)cc1` [p-Ethoxyphenylazo-m-phenylanediamine Monohydrochloride], in data set [1], the “Potential at pHOa” value is given as 0.76 Volts.
On to Brilliant Cresyl Blue, for which the “Potential at pHOa” value in data set [1] is 0.58 Volts.
On to Diphenylaminosulfonic Acid Sodium Salt, for which, in data set [1], the “Potential at pHOa” value was 0.85 Volts.
For the compound N,N-Diphenylbenzidine, the “Potential at pHOa” value in data set [1] is given as 0.76 Volts.
